Laboratory results: patent US11072598B2, “Somatostatin modulators and uses thereof” (CRINETICS PHARMACEUTICALS, INC., priority 2017, dated 2021)
Read-outs that look alike come from different tables or passages of the source.

What was measured:
hERG ion channel = target: T1, hERG ion channel (Homo sapiens, UniProt Q12809); experiment: hERG fluorescence polarization assay (Predictor kit); type: binding; conditions: tracer displacement, membrane fractions; read-out: hERG inh.
T1 construct: purchased ThermoFisher Scientific PV5365
Description: On the day of the assay, various dilutions of test articles of the invention are prepared in assay buffer (Predictor™ hERG Fluorescence Polarization Assay Kit, ThermoFisher Scientific #PV5365) and dilutions are added to membranes fractions that contain the functional hERG ion channel (supplied by the kit). […] Under normal conditions, the tracer binds to the hERG channel and the fluorecence polarization measured is high. […] The concentration of free tracer is measured via fluorescence polarization using parameters prescribed in the kit with a Tecan M1000Pro multiplate reader. […] The fluorescence polarization is plotted versus test article concentration and an IC50 for hERG inhibition is calculated using standard methods. All data manipluations are in GraphPad Prism v6.

human CYP2D6 isozyme = target: T2, human CYP2D6 isozyme (Homo sapiens, UniProt P10635); experiment: CYP2D6 assay (Vivid CYP2D6 Blue Screening Kit); type: in vitro ADME; conditions: CYP450 microsomes, fluorogenic substrate; read-out: CYP2D6 inh.
T2 construct: purchased ThermoFisher Scientific P2972
Description: On the day of the assay, various dilutions of test articles of the invention are prepared in assay buffer (Vivid® CYP2D6 Blue Screening Kit, ThermoFisher Scientific #P2972) and dilutions are added to a preparation of CYP450 microsomes expressing the functional human CYP2D6 isozyme (supplied by the kit) and incubated for 15 minutes at 37° C. to allow interactions between the test article of invention and the enzyme in the absence of enzyme turnover. The enzymatic reaction is initiated by addition of the NADPH co-factor in the precense of the fluorogenic substrate. Under normal conditions, this substrate (which is not fluorescent) is cleaved by active CYP2D6 to produce a a fluorescent product. When in the presence of test article, the lack of appearance of the fluorescent product is evidence of inhibition of the CYP2D6 enzyme by the test article. The enzymatic reaction is allowed to proceed for 30 minutes at […] and then terminated by the addition of 0.5 M Tris pH 10.8. The concentration of fluorescent cleavage product is measured using spectroscopic parameters prescribed in the kit with a Tecan M1000Pro multiplate reader. The percent inhibition is calculated based on the fluorescence intensity observed in the presence of the positive control inhibitor, quinidine (Sigma #Q3625), included in each assay. The percent inhibition is plotted versus test article concentration and an IC50 for CYP2D6 inhibition is calculated using standard methods. All data manipluations are in GraphPad Prism v6.

hSSTR4 = target: T3, hSSTR4 (Homo sapiens, UniProt P31391); experiment: inhibition of cAMP via hSSTR4; type: cell-based; conditions: for EC50: cAMP inhibition, Table C, read-out: hSST4 (EC50); for hSST4/hSST2 (ratio): selectivity for inhibition of cAMP via hSSTR2 vs. hSSTR4
T3 construct: expressed in transfected cells
From the text: General overview: All five SSTR subtypes are Gi coupled G-protein coupled receptors (GPCRs) that lead to decreases in intracellular cyclic AMP (cAMP) when activated by an agonist. Therefore, measurement of intracellular cAMP levels can be used to assess whether compounds of the invention are agonists of SSTR subtypes (John Kelly, Troy Stevens, W. Joseph Thompson, and Roland Seifert, Current Protocols in Pharmacology, 2005, 2.2.1-2.2). One example of an intracellular cAMP assay is described below. cAMP assay protocol:
Four days prior to the assay, 5,000 Chinese hamster ovary cells (CHO-K1, ATCC #CCL-61) stably expressing the human somatostatin receptor subtype 2 are plated in each well of a 96-well tissue culture-treated plate in Ham's F12 growth media (ThermoFisher #10-080-CM) supplemented with 10% donor bovine serum (Gemini Bio-Products #100-506), 100 U/mL penicillin; 100 ug/mL streptomycin; 2 mM L-glutamine (Gemini Bio-Products #400-110) and 0.2 mg/mL hygromycin B (GoldBio #31282-04-9). The cells are cultured at 37° C., 5% CO2 and 95% humidity. On the day of the assay, the media is aspirated and the cells are treated with 50 μL of 1.6 μM NKH477 (Sigma #N3290) plus various dilutions of compounds of the invention in assay buffer [1× Hank's Balanced Salt Solution (ThermoFisher #SH3058802), 0.5 mM HEPES pH 7.4, 0.1% bovine serum albumin, 0.2 mM 3-Isobutyl-1-methylxanthine (IBMX, VWR #200002-790)]. The cells are incubated for 20 minutes at 37° C. (the final concentration of the compounds of the invention are typically 0-10,000 nM). The cells are treated with 50 μL of lysis buffer (HRTF cAMP kit, Cisbio). The lysate is transferred to 384-well plates and cAMP detection and visualization antibodies are added and incubated for 1-24 hours at room temperature. The time-resolved fluorescent signal is read with a Tecan M1000Pro multiplate reader. The intracellular cAMP concentrations are calculated by regression to a standard curve and are plotted vs. the concentration of the compounds of the invention and the EC50 of the compounds are calculated using standard methods. All data manipluations are in GraphPad Prism v6.

[1] = target: T4, human somatostatin receptor subtype 2 (Homo sapiens, UniProt P30874); experiment: cAMP functional assay for SSTR2 agonists; type: cell-based
T4 construct: expressed in transfected cells
Procedure, shortened: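 CHO-K1 cells stably expressing human SSTR2 were treated for 20 min at 37 °C with compound plus NKH477 (added as 1.6 μM) in HBSS with IBMX. Intracellular cAMP was measured by HTRF against a standard curve. EC50 values came from concentration-response curves.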

[2] = cAMP inhibition, Table C, read-out: hSST2 (EC50)
[3] = inhibition of cAMP activities via human SST2 receptor (SSTR2), CHO-K1 cells, read-out: EC50

T4 sequence (P30874 whole entry): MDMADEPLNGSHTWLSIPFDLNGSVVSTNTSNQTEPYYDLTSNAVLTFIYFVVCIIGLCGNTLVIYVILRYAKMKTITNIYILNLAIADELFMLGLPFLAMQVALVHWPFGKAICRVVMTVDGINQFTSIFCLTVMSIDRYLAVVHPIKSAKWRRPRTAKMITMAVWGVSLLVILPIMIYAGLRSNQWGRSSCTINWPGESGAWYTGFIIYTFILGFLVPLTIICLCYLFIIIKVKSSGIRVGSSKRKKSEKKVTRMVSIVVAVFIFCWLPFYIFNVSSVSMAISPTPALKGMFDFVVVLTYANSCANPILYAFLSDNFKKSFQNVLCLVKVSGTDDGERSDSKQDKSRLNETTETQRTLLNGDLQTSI
T3 sequence (P31391 whole entry): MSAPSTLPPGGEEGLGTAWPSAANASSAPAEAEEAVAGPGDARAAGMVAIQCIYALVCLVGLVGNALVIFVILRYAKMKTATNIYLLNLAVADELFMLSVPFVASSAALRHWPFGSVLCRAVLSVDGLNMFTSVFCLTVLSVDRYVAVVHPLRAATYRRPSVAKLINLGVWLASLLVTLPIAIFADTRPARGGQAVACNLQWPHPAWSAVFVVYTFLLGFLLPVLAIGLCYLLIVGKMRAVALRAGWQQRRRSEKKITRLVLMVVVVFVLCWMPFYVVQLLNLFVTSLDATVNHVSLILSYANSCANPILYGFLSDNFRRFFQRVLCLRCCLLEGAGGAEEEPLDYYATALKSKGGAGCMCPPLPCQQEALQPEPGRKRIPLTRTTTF
T1 sequence (Q12809 whole entry): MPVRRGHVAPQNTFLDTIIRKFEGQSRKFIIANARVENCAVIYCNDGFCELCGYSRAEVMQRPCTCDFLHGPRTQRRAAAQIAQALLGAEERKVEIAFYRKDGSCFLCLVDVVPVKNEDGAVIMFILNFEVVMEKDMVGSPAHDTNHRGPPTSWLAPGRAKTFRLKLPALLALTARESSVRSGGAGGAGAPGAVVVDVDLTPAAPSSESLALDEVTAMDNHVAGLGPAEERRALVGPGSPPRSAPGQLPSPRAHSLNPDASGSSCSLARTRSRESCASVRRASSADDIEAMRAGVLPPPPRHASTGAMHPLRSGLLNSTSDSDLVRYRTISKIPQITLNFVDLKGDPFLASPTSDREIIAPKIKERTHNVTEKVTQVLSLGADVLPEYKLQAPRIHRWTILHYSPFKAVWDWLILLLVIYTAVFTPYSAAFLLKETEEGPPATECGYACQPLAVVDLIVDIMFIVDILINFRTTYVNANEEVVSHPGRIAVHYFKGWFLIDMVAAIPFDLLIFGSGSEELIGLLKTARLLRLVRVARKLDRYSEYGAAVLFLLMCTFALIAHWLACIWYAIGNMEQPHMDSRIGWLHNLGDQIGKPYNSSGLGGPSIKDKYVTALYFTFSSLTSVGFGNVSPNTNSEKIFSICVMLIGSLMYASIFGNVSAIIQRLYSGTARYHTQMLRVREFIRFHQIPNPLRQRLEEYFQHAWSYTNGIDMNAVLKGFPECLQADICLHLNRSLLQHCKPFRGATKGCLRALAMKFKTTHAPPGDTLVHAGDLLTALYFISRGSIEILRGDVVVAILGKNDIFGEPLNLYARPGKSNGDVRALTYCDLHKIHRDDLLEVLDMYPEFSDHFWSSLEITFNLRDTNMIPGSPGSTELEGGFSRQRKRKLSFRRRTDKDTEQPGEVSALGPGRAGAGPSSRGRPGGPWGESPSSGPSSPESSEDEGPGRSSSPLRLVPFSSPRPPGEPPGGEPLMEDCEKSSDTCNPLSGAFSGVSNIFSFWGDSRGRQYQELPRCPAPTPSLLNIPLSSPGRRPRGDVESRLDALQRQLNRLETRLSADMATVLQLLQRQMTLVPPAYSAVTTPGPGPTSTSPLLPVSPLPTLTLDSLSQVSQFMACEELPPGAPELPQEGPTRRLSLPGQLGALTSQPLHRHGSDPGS
T2 sequence (P10635 whole entry): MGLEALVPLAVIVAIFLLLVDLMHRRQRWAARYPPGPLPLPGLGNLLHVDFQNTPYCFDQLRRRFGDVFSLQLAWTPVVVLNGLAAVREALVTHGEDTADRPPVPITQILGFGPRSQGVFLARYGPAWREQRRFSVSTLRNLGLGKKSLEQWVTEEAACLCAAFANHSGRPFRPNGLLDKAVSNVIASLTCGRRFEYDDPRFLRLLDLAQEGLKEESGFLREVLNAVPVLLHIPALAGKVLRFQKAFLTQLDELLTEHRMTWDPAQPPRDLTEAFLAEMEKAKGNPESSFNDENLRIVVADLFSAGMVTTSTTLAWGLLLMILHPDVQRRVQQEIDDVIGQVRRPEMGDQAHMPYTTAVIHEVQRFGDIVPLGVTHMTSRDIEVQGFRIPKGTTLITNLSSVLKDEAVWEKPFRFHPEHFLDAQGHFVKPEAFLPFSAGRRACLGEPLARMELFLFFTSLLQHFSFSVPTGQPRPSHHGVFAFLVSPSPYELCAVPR

Structure (SMILES) | IC50 (human CYP2D6 isozyme) [nM] | EC50 (hSSTR4) [nM] | hSST4/hSST2 (ratio) (hSSTR4) | EC50 [1, 2] [nM] | EC50 [1, 3] [nM] | IC50 (hERG ion channel) [nM]
Cc1cc(F)cc(-c2cncc(-c3nc4cc(C#N)ccc4[nH]3)c2N2CCC(N)CC2)c1 [R^1=H, R^5=H, R^6=5-CN, R^7=H, reference compound] | > 5000 | 1.2 | c (between 2.5 and 15) | 0.13 |  | < 5000
Cc1cc(F)cc(-c2cncc(-c3nc4cc(F)ccc4[nH]3)c2N2CCC(N)CC2)c1 [R^1=H, R^5=H, R^6=5-F, R^7=H, reference compound] | < 5000 | 0.12 |  |  |  | 
Cc1cc(F)cc(-c2cncc(-c3nc4cccc(F)c4[nH]3)c2N2CCC(N)CC2)c1 [R^1=H, R^5=H, R^6=H, R^7=7-F, reference compound] | < 5000 | 0.09 | e (below 1) | 0.43 |  | > 5000

Further lines, with some results ahead:

IC50 (human CYP2D6 isozyme) [nM] | EC50 (hSSTR4) [nM] | hSST4/hSST2 (ratio) (hSSTR4) | EC50 [1, 2] [nM] | EC50 [1, 3] [nM] | Structure (SMILES) | IC50 (hERG ion channel) [nM]
> 5000 | 0.71 | c (between 2.5 and 15) | 0.27 | < 10 | Cc1cc(F)cc(-c2cnc(N)c(-c3nc4cccc(F)c4[nH]3)c2N2CCC(N)CC2)c1 [Compound 1-11, 4-(4-aminopiperidin-1-yl)-3-(7-fluoro-1H-1,3-benzodiazol-2-yl)-5-(3-fluoro-5-methylphenyl)pyridin-2-amine] | > 5000
> 5000 | 14 | a (above 50) | 0.06 | < 10 | Cc1cc(F)cc(-c2cnc(N)c(-c3nc4cc(C#N)ccc4[nH]3)c2N2CCC(N)CC2)c1 [Compound 1-12, 2-[2-amino-4-(4-aminopiperidin-1-yl)-5-(3-fluoro-5-methylphenyl)pyridin-3-yl]-1H-1,3-benzodiazole-5-carbonitrile] | > 5000
> 5000 | 15 | a (above 50) | 0.18 | < 10 | CNc1ncc(-c2cc(C)cc(F)c2)c(N2CCC(N)CC2)c1-c1nc2cc(F)cc(F)c2[nH]1 [Compound 1-48, 4-(4-aminopiperidin-1-yl)-3-(5,7-difluoro-1H-1,3-benzodiazol-2-yl)-5-(3-fluoro-5-methylphenyl)-N-methylpyridin-2-amine] | > 5000
> 5000 | 0.7 | b (between 15 and 50) | 0.03 | < 10 | Cc1cc(F)cc(-c2cnc(N)c(-c3nc4cc(Cl)ccc4[nH]3)c2N2CCC(N)CC2)c1 [Compound 1-1, 4-(4-aminopiperidin-1-yl)-3-(5-chloro-1H-1,3-benzodiazol-2-yl)-5-(3-fluoro-5-methylphenyl)pyridin-2-amine] | > 5000
> 5000 | 1.3 | b (between 15 and 50) | 0.05 | < 10 | Cc1cc(F)cc(-c2cnc(N)c(-c3nc4cc(F)cc(F)c4[nH]3)c2N2CCC(N)CC2)c1 [Compound 1-2, 4-(4-aminopiperidin-1-yl)-3-(5,7-difluoro-1H-1,3-benzodiazol-2-yl)-5-(3-fluoro-5-methylphenyl)pyridin-2-amine] | > 5000
> 5000 | 0.92 | b (between 15 and 50) | 0.06 | < 10 | Cc1cc(F)cc(-c2cnc(N)c(-c3nc4cc(F)ccc4[nH]3)c2N2CCC(N)CC2)c1 [Compound 1-6, 4-(4-aminopiperidin-1-yl)-3-(5-fluoro-1H-1,3-benzodiazol-2-yl)-5-(3-fluoro-5-methylphenyl)pyridin-2-amine] | > 5000
